The target of this test is T1, human neprilysin (EC 3.4.24.11; NEP) (Homo sapiens, UniProt P08473).
T1 construct: purchased R&D Systems, Minneapolis, Minn; 1182-ZN
Nature of the test: In vitro enzyme inhibition assay at human NEP (fluorogenic peptide substrate). It is filed as biochemical. Particulars: recombinant human NEP; 37° C.; substrate Mca-D-Arg-Arg-Leu-Dap-(Dnp)-OH 10 μM; values given as ranges; read-out: pKi values at human NEP (converted). The method, then: In vitro Assays for the Quantitation of Inhibitor Potencies at Human and Rat NEP, and Human ACE
The inhibitory activities of compounds at human and rat neprilysin (EC 3.4.24.11; NEP) and human angiotensin converting enzyme (ACE) were determined using in vitro assays as described below.
Recombinant human NEP and recombinant human ACE were obtained commercially (R&D Systems, Minneapolis, Minn., catalog numbers 1182-ZN and 929-ZN, respectively). The fluorogenic peptide substrate Mca-D-Arg-Arg-Leu-Dap-(Dnp)-OH (Medeiros et al. (1997) Braz. J. Med. Biol. Res. 30:1157-62; Anaspec, San Jose, Calif.) and Abz-Phe-Arg-Lys(Dnp)-Pro-OH (Araujo et al. (2000) Biochemistry 39:8519-8525; Bachem, Torrance, Calif.) were used in the NEP and ACE assays respectively.
The assays were performed in 384-well white opaque plates at 37° C. using the fluorogenic peptide substrates at a concentration of 10 μM in Assay Buffer (NEP: 50 mM HEPES, pH 7.5, 100 mM NaCl, 0.01% polyethylene glycol sorbitan monolaurate (Tween-20), 10 μM ZnSO4; ACE: 50 mM HEPES, pH 7.5, 100 mM NaCl, 0.01% Tween-20, 1 μM ZnSO4).
Test compounds were assayed over the range of concentrations from 10 μM to 20 pM. Test compounds were added to the enzymes and incubated for 30 minute at 37° C. prior to initiating the reaction by the addition of substrate. Reactions were terminated after 20 minutes of incubation at 37° C. by the addition of glacial acetic acid to a final concentration of 3.6% (v/v).
Plates were read on a fluorometer with excitation and emission wavelengths set to 320 nm and 405 nm, respectively Inhibition constants were obtained by nonlinear regression of the data using the equation (GraphPad Software, Inc., San Diego, Calif.): v=v0/[1+(I/K′)] where v is the reaction rate, v0 is the uninhibited reaction rate, I is the inhibitor concentration and K′ is the apparent inhibition constant.
Compounds of the invention were tested in this assay and found to have pKi values at human NEP as follows.

The values below come from US8686184B2, “Neprilysin inhibitors” (Theravance, Inc., priority 2011, dated 2014).

T1 sequence (P08473 52-750 limits assumed): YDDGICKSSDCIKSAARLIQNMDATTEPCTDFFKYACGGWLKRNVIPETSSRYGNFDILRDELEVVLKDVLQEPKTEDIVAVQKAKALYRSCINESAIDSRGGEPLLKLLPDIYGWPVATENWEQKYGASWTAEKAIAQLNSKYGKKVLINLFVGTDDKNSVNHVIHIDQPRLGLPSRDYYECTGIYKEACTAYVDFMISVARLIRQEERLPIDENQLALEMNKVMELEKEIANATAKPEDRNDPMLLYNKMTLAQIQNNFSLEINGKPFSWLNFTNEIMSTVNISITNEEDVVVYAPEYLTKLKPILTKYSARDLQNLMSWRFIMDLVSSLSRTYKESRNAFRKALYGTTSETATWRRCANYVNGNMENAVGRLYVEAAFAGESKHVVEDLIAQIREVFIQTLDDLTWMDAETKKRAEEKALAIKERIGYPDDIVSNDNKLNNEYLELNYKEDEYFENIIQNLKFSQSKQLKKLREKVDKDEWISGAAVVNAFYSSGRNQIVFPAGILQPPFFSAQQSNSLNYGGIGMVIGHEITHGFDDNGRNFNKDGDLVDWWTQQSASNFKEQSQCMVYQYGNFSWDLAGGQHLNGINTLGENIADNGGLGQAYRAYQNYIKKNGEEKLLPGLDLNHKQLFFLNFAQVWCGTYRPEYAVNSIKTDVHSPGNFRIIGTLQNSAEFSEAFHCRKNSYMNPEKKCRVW

Regarding `Cc1ccc(C(=O)N[C@H](Cc2ccccc2)[C@@H](O)C(=O)O)cc1-n1ccc(C(=O)O)n1` [Example 10-8, 1-[5-((1R,2R)-1-Benzyl-2-carboxy-2-hydroxyethylcarbamoyl)-2-methyl-phenyl]-1H-pyrazole-3-carboxylic acid], the Ki was 12.6 to 100 nM.

For the molecule `O=C(N[C@H](Cc1ccccc1)[C@@H](O)C(=O)O)c1cccc(-c2ccccc2C(=O)O)c1` [Example 10-9, 3′-((1R,2R)-1-Benzyl-2-carboxy-2-hydroxy-ethylcarbamoyl)-biphenyl-2-carboxylic acid], the Ki is 12.6 to 100 nM.

With `O=C(N[C@H](Cc1ccccc1)[C@@H](O)C(=O)O)c1cccc(-c2ccc(F)cc2C(=O)O)c1` [Example 10-10, 3′-((1R,2R)-1-Benzyl-2-carboxy-2-hydroxy-ethylcarbamoyl)-4-fluoro-biphenyl-2-carboxylic acid], the Ki was 12.6 to 100 nM.

Consider `O=C(N[C@H](Cc1ccccc1)[C@@H](O)C(=O)O)c1cccc(-c2ccc(Cl)cc2C(=O)O)c1` [Example 10-11, 3′-((1R,2R)-1-Benzyl-2-carboxy-2-hydroxy-ethylcarbamoyl)-4-chloro-biphenyl-2-carboxylic acid], for which the Ki is 12.6 to 100 nM.

Turning to `O=C(N[C@H](Cc1ccccc1)[C@@H](O)C(=O)O)c1cccc(-c2cc(Cl)ccc2C(=O)O)c1` [Example 10-12, 3′-((1R,2R)-1-Benzyl-2-carboxy-2-hydroxy-ethylcarbamoyl)-5-chloro-biphenyl-2-carboxylic acid], the Ki is 12.6 to 100 nM.

Consider `COc1ccc(C(=O)O)c(-c2cccc(C(=O)N[C@H](Cc3ccccc3)[C@@H](O)C(=O)O)c2)c1` [Example 10-13, 3′-((1R,2R)-1-Benzyl-2-carboxy-2-hydroxy-ethylcarbamoyl)-5-methoxy-biphenyl-2-carboxylic acid], for which the Ki was 12.6 to 100 nM.

In the case of `O=C(N[C@H](Cc1ccccc1)[C@@H](O)C(=O)O)c1cccc(-c2cc(F)ccc2C(=O)O)c1` [Example 10-14, 3′-((1R,2R)-1-Benzyl-2-carboxy-2-hydroxy-ethylcarbamoyl)-5-fluoro-biphenyl-2-carboxylic acid], the Ki is 12.6 to 100 nM.

For the molecule `Cc1ccc(C(=O)N[C@H](Cc2ccccc2)[C@@H](O)C(=O)O)cc1-c1ccccc1C(=O)O` [Example 10-15, 5′-((1R,2R)-1-Benzyl-2-carboxy-2-hydroxy-ethylcarbamoyl)-2′-methyl-biphenyl-2-carboxylic acid], the Ki was 1.26 to 10 nM.

Turning to `CC(C)c1ccc(C(=O)N[C@H](Cc2ccccc2)[C@@H](O)C(=O)O)cc1-c1ccccc1C(=O)O` [Example 10-17, 5′-((1R,2R)-1-Benzyl-2-carboxy-2-hydroxy-ethylcarbamoyl)-2′-isopropyl-biphenyl-2-carboxylic acid], the Ki is 1.26 to 10 nM.

As to `CCc1ccc(C(=O)N[C@H](Cc2ccccc2)[C@@H](O)C(=O)O)cc1-c1ccccc1C(=O)O` [Example 10-19, 5′-((1R,2R)-1-Benzyl-2-carboxy-2-hydroxy-ethylcarbamoyl)-2′-ethyl-biphenyl-2-carboxylic acid], the Ki is 1.26 to 10 nM.

`Cc1ccc(C(=O)N[C@H](Cc2ccccc2)[C@@H](O)C(=O)O)cc1-c1ccccc1CC(=O)O` [Example 10-20, (2R,3R)-3-[(2′-Carboxymethyl-6-methyl-biphenyl-3-carbonyl)-amino]-2-hydroxy-4-phenyl-butyric acid]: the Ki is 12.6 to 100 nM.

As for `O=C(N[C@H](Cc1ccccc1)[C@@H](O)C(=O)O)c1ccc(N2CCOCC2)c(-c2ccccc2C(=O)O)c1` [Example 10-21, 5′-((1R,2R)-1-Benzyl-2-carboxy-2-hydroxy-ethylcarbamoyl)-2′-morpholin-4-yl-biphenyl-2-carboxylic acid], the Ki was 12.6 to 100 nM.

`O=C(N[C@H](Cc1ccccc1)[C@@H](O)C(=O)O)c1ccc(Cl)c(-c2ccccc2C(=O)O)c1` [Example 10-22, 5′-((1R,2R)-1-Benzyl-2-carboxy-2-hydroxy-ethylcarbamoyl)-2′-chloro-biphenyl-2-carboxylic acid]: the Ki is 1.26 to 10 nM.

As to `O=C(N[C@H](Cc1ccccc1)[C@@H](O)C(=O)O)c1cc(O)cc(-c2ccccc2C(=O)O)c1` [Example 10-24, 3′-((1R,2R)-1-Benzyl-2-carboxy-2-hydroxy-ethylcarbamoyl)-5′-hydroxy-biphenyl-2-carboxylic acid], the Ki was 12.6 to 100 nM.

Consider `O=C(N[C@H](Cc1ccccc1)[C@@H](O)C(=O)O)c1cc(F)cc(-c2ccccc2C(=O)O)c1` [Example 10-25, 3′-((1R,2R)-1-Benzyl-2-carboxy-2-hydroxy-ethylcarbamoyl)-5′-fluoro-biphenyl-2-carboxylic acid], for which the Ki is 1.26 to 10 nM.

Take `O=C(N[C@H](Cc1ccccc1)[C@@H](O)C(=O)O)c1cc(Cl)cc(-c2ccccc2C(=O)O)c1` [Example 10-26, 3′-((1R,2R)-1-Benzyl-2-carboxy-2-hydroxy-ethylcarbamoyl)-5′-chloro-biphenyl-2-carboxylic acid]: the Ki was 1.26 to 10 nM.

As to `Cc1cc(C(=O)N[C@H](Cc2ccccc2)[C@@H](O)C(=O)O)cc(-c2ccccc2C(=O)O)c1` [Example 10-27, 3′-((1R,2R)-1-Benzyl-2-carboxy-2-hydroxy-ethylcarbamoyl)-5′-methyl-biphenyl-2-carboxylic acid], the Ki was 12.6 to 100 nM.

`O=C(N[C@H](Cc1ccccc1)[C@@H](O)C(=O)O)c1ccc(-c2ccccc2)c(C(=O)O)c1` [Example 10-28, 4-((1R,2R)-1-Benzyl-2-carboxy-2-hydroxy-ethylcarbamoyl)-biphenyl-2-carboxylic acid]: the Ki was 12.6 to 100 nM.

With `O=C(O)c1cc(C(=O)N[C@H](Cc2ccccc2)[C@@H](O)C(=O)O)cc(-c2ccccc2)c1` [Example 10-29, 5-((1R,2R)-1-Benzyl-2-carboxy-2-hydroxy-ethylcarbamoyl)-biphenyl-3-carboxylic acid], the Ki was 12.6 to 100 nM.

Regarding `NS(=O)(=O)c1cccc(-c2cccc(C(=O)N[C@H](Cc3ccccc3)[C@@H](O)C(=O)O)c2)c1` [Example 10-30, (2R,3R)-2-Hydroxy-4-phenyl-3-[(3′-sulfamoyl-biphenyl-3-carbonyl)-amino]-butyric acid], the Ki is 12.6 to 100 nM.

With `O=C(N[C@H](Cc1ccccc1)[C@@H](O)C(=O)O)c1cccc(-c2cccc(-c3nnn[nH]3)c2)c1` [Example 10-31, (2R,3R)-2-Hydroxy-4-phenyl-3-{[3′-(1H-tetrazol-5-yl)-biphenyl-3-carbonyl]-amino}-butyric acid], the Ki was 12.6 to 100 nM.

Regarding `CCc1ccc(C(=O)N[C@H](Cc2ccccc2)[C@@H](O)C(=O)O)cc1` [Example 10-32, (2R,3R)-3-(4-Ethyl-benzoylamino)-2-hydroxy-4-phenyl-butyric acid], the Ki is 12.6 to 100 nM.

On to `CCCc1ccc(C(=O)N[C@H](Cc2ccccc2)[C@@H](O)C(=O)O)cc1` [Example 10-33, (2R,3R)-2-Hydroxy-4-phenyl-3-(4-propyl-benzoylamino)-butyric acid], for which the Ki is 12.6 to 100 nM.

As to `CC(C)c1ccc(C(=O)N[C@H](Cc2ccccc2)[C@@H](O)C(=O)O)cc1` [Example 10-34, (2R,3R)-2-Hydroxy-3-(4-isopropyl-benzoylamino)-4-phenyl-butyric acid], the Ki is 12.6 to 100 nM.

In the case of `CCCCc1ccc(C(=O)N[C@H](Cc2ccccc2)[C@@H](O)C(=O)O)cc1` [Example 10-35, (2R,3R)-3-(4-Butyl-benzoylamino)-2-hydroxy-4-phenyl-butyric acid], the Ki was 12.6 to 100 nM.

Take `CC(C)Cc1ccc(C(=O)N[C@H](Cc2ccccc2)[C@@H](O)C(=O)O)cc1` [Example 10-36, (2R,3R)-2-Hydroxy-3-(4-isobutyl-benzoylamino)-4-phenyl-butyric acid]: the Ki was 12.6 to 100 nM.

On to `CCCCCc1ccc(C(=O)N[C@H](Cc2ccccc2)[C@@H](O)C(=O)O)cc1` [Example 10-38, (2R,3R)-2-Hydroxy-3-(4-pentyl-benzoylamino)-4-phenyl-butyric acid], for which the Ki was 12.6 to 100 nM.

As to `O=C(N[C@H](Cc1ccccc1)[C@@H](O)C(=O)O)c1ccc(C2CC2)cc1` [Example 10-39, (2R,3R)-3-(4-Cyclopropyl-benzoylamino)-2-hydroxy-4-phenyl-butyric acid], the Ki was 12.6 to 100 nM.

As to `O=C(N[C@H](Cc1ccccc1)[C@@H](O)C(=O)O)c1ccc(C2CCCCC2)cc1` [Example 10-40, (2R,3R)-3-(4-Cyclohexyl-benzoylamino)-2-hydroxy-4-phenyl-butyric acid], the Ki is 12.6 to 100 nM.

As to `CC1=NN(c2ccc(C(=O)N[C@H](Cc3ccccc3)[C@@H](O)C(=O)O)cc2)C(=O)C1` [Example 10-41, (2R,3R)-2-Hydroxy-3-[4-(3-methyl-5-oxo-4,5-dihydro-pyrazol-1-yl)-benzoylamino]-4-phenyl-butyric acid], the Ki is 12.6 to 100 nM.
